In patent publication US9566312B2, “Cyclic peptides and use as medicines” (priority 2012, dated 2017):
Read-outs that look alike come from different tables or passages of the source. Starred links: 1 amine or outer side, 2 acyl side, 3 side chain; linkers in the order of their positions; H or OH if unused. Non-standard residues stand in square brackets, D forms with d. Residues, ends and D or L forms follow the SMILES beside them. X69 = C[C@H](CCCN1CCC(C(N)=O)CC1)[C@@H](C(=O)[*:2])N(C)[*:1]; X83 = C[C@H](COC(=O)N1CCC(O)CC1)[C@@H](C(=O)[*:2])N(C)[*:1]; X39 = C[C@H](CN1CCC(C#N)CC1)[C@@H](C(=O)[*:2])N(C)[*:1]; X47 = C[C@H](CN1CCC(F)(F)C1)[C@@H](C(=O)[*:2])N(C)[*:1]; MeBmt = C/C=C/C[C@@H](C)[C@@H](O)[C@H](NC)C(=O)O; NMeVal(4-OMe,3S) = CN[C@H](C(=O)O)[C@H](C)COC; X86 = C[C@@H](CO)[C@@H](C(=O)[*:2])N(C)[*:1]; NMeL = CN[C@@H](CC(C)C)C(=O)O; NMeV = CN[C@H](C(=O)O)C(C)C; dNMeS = CN[C@H](CO)C(=O)O; dNMeA = CN[C@H](C)C(=O)O; Abu = CC[C@H](N)C(=O)O

Columns and labels:
cyclophilin A (CypA) = cyclophilin A (CypA) (Homo sapiens (Human), UniProt P62937); test: Inhibitor binding to cyclophilin proteins by SPR, CypA; set-up: unit not given here; conditions: 1:1 binding model
cyclophilin B (CypB) = cyclophilin B (CypB) (Homo sapiens (Human), UniProt P23284); test: Inhibitor binding to cyclophilin proteins by SPR, CypB; set-up: unit not given here; conditions: 1:1 binding model
Procedure: (§1) Method 1: Measuring Inhibitor Binding to Cyclophilin Proteins
(§2) Binding of inhibitors to expressed cyclophilins was determined using surface plasmon resonance (SPR) experiments. Briefly, avi-tagged cyclophilin proteins with mono-biotinylation were immobilized onto a Biotin CAPture chip (GE Healthcare, cat. #28920234). SPR experiments were carried out on an upgraded Biacore T200 system using a running buffer containing the inhibitor, 10 mM HEPES, pH 7.4, 150 mM NaCl, 0.05% P20, and 3% DMSO. Single-cycle kinetics measurements were used to study the interactions between cyclophilin inhibitors and different cyclophlins. Accordingly, compound at various concentrations was injected to the flow cells with a contact time of 1 min each at a flow rate of 50 μL/min. The final dissociation phase lasts for 10 min following the sample injection. Data was analyzed using Biacore T200 Evaluation Software Version 1.0 and a 1:1 binding model was applied to fit the data to obtain kon, koff, and KD.

CypF = CypF (Homo sapiens (Human), UniProt P30405); test: Inhibitor binding to cyclophilin proteins by SPR, CypF; conditions: 1:1 binding model
Procedure: as §1, §2

[1] = system: genotype 1b subgenomic HCV replicon in Huh7.5 cells; format: cell-based, hepatitis C virus; conditions: read-out: RPLN-1b IC50
Procedure: Method 2: Measuring Inhibitory Effects in a HCV Replicon System
Susceptibility to compounds was analyzed in Huh7.5 cells containing genotype 1a or 1b subgenomic HCV replicons co-expressing a luciferase reporter gene. The original replicons, pFK389lucubineo_3_3′_ET and pH/SG-Neo(L+I), were licensed from ReBlicon GmbH (Germany) and Apath LLC (Saint Louis, Mo.), respectively. The firefly reporter gen was replaced by renilla luciferase reporter gene using standard molecular biology techniques as follows.
Generation of genotype 1b subgenomic replicon: The renilla […]-neomycin phosphotransferase cassette was amplified from pF9 cytomegalovirus (CMV) hRluc-Neo Flexi(R) (Promega) by PCR using Accuprime super mix II (Invitrogen) and a primer set of Ascl hRlucNeo Fwd and NotI hRluc Rev. These two primers have the following sequences and introduce restriction sites for subsequent cloning: Ascl hRlucNeo Fwd, 5 […] 3(Ascl site underlined) (SEQ. ID No. 1), and NotI hRluc Rev, 5[…] 3(NotI site underlined) (SEQ ID No. 2). The amplification product was subcloned into pCR2.1-TOPO (Invitrogen). The resulting plasmid was digested with Ascl and NotI, and the excised fragment (hRluc-Neo) was ligated with the Roche Quick Ligation Kit (Roche) into pFK1389lucubineo_3_3′_ET digested with the same enzymes.
The assay medium for both, luciferase reporter HCV replicon and cytotoxicity assays contains phenol red-free DMEM and lacks G418. […] Luciferase activity of compound treated cells is measured relative to DMSO treated cells after 72 h incubation using Renilla-Glo™ Luciferase Assay (Promega). Cytotoxicity (CC50) is analyzed using Cell Titer-Glo™ (Promega).

[2] = system: peripheral blood mononuclear cells (PBMC); test: Anti-proliferative or immunosuppressive activity, BrdU incorporation in PHA-stimulated PBMC; format: cell-based; conditions: PHA 3 μg/ml, 60 hour compound treatment; read-out: EMV PBMC IC50
Procedure: Method 3: Measuring Anti-Proliferative or Immunosuppressive Activity
The potential anti-proliferative activity of compounds on T-cells was analyzed based on the amount of bromodesoxy uridine (BrdU) incorporated into DNA of fresh peripheral blood mononuclear cells (PBMC) using the BrdU ELISA kit (Roche). The assay is performed in 96-well plate format with 30,000 PBMCs seeded per well in X-VIVO 15 medium (Lonza). T-cell proliferation was stimulated by addition of 3 μg/ml phytohemagglutinin (PHA) in PBMCs obtained from two donors.

[3] = genotype 1b replicon, 72 h incubation

Sequence of cyclophilin A (CypA) (P62937 whole entry): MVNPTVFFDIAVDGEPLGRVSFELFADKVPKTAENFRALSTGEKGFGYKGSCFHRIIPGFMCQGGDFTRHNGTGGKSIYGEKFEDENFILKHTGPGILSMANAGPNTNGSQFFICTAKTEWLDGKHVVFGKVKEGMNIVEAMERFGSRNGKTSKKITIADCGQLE
Sequence of CypF (P30405 30-207): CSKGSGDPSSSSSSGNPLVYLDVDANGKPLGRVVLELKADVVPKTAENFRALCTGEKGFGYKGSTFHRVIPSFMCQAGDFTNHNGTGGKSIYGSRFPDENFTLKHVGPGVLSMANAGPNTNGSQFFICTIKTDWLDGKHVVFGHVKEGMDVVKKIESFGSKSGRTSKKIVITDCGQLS
Sequence of cyclophilin B (CypB) (P23284 34-216): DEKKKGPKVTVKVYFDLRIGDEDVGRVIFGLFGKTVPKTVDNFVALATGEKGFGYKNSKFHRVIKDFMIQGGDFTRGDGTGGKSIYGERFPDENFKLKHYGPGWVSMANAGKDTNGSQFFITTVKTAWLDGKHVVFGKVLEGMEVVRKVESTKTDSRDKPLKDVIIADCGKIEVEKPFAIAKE

| SMILES | CypA Kd (cyclophilin A (CypA)) | CypB Kd (cyclophilin B (CypB)) | CypF Kd (CypF) [µM] | IC50 [1, 3] [µM] | IC50 [2] [µM] | IC50 [1] [µM] |
| --- | --- | --- | --- | --- | --- | --- |
| C/C=C/C[C@@H](C)[C@@H](O)[C@H]1C(=O)N[C@@H](CC)C(=O)N(C)[C@H](C)C(=O)N(C)[C@@H]([C@H](C)COC(=O)N(C)C2CCN(C)CC2)C(=O)N[C@@H](C(C)C)C(=O)N(C)[C@@H](CC(C)C)C(=O)N[C@@H](C)C(=O)N[C@H](C)C(=O)N(C)[C@@H](CC(C)C)C(=O)N(C)[C@@H](CC(C)C)C(=O)N(C)[C@@H](C(C)C)C(=O)N1C [Compound 2.5.32, 3-[D-Ala]-4-[(2S,3S)-3-methyl-4-((methyl(1-methylpiperidin-4-yl)carbamoyl)oxy)-2-(methylamino)butanoyl]-cyclosporin] | 0.7 | 0.5 | 0.0004 | 0.15 | 9.5 |  |
| C/C=C/C[C@@H](C)[C@@H](O)[C@H]1C(=O)N[C@@H](CC)C(=O)N(C)[C@H](CCCNC)C(=O)N(C)[C@@H]([C@H](C)COC)C(=O)N[C@@H](C(C)C)C(=O)N(C)[C@@H](CC(C)C)C(=O)N[C@@H](C)C(=O)N[C@H](C)C(=O)N(C)[C@@H](CC(C)C)C(=O)N(C)[C@@H](CC(C)C)C(=O)N(C)[C@@H](C(C)C)C(=O)N1C (stereo in doubt) [Compound 3.2.1, 3-[(R)-2,5-bis(methylamino)pentanoyl]-4-[(2S,3S)-4-methoxy-3-methyl-2-(methylamino)butanoyl]-cyclosporin] | 6.3 | 3.0 | 0.0034 | 4.8 | 34.9 |  |
| C/C=C/C[C@@H](C)[C@@H](O)[C@H]1C(=O)N[C@@H](CC)C(=O)N(C)[C@H](C)C(=O)N(C)[C@@H]([C@H](C)CN2CCC(F)(F)C2)C(=O)N[C@@H](C(C)C)C(=O)N(C)[C@@H](CC(C)C)C(=O)N[C@@H](C)C(=O)N[C@H](C)C(=O)N(C)[C@@H](CC(C)C)C(=O)N(C)[C@@H](CC(C)C)C(=O)N(C)[C@@H](C(C)C)C(=O)N1C [Compound 2.5.18, 3-[D-Ala]-4-[(2S,3R)-4-(3,3-difluoropyrrolidin-1-yl)-3-methyl-2-(methylamino)butanoyl]-cyclosporin] (cyclo(A[dA][NMeL][NMeL][NMeV][MeBmt][Abu][dNMeA][X47]V[NMeL])) | 3.9 | 1.8 | 0.002 | 0.009 | 12.1 |  |
| C/C=C/C[C@@H](C)[C@@H](O)[C@H]1C(=O)N[C@@H](CC)C(=O)N(C)[C@H](C)C(=O)N(C)[C@@H]([C@H](C)COC(=O)N2CCC(O)CC2)C(=O)N[C@@H](C(C)C)C(=O)N(C)[C@@H](CC(C)C)C(=O)N[C@@H](C)C(=O)N[C@H](C)C(=O)N(C)[C@@H](CC(C)C)C(=O)N(C)[C@@H](CC(C)C)C(=O)N(C)[C@@H](C(C)C)C(=O)N1C [Compound 2.5.8, 3-[D-Ala]-4-[(2S,3S)-4-((4-hydroxypiperidine-1-carbonyl)oxy)-3-methyl-2-(methylamino)butanoyl]-cyclosporin] (cyclo(A[dA][NMeL][NMeL][NMeV][MeBmt][Abu][dNMeA][X83]V[NMeL])) | 1.7 | 1.0 | 0.001 |  |  |  |
| C/C=C/C[C@@H](C)[C@@H](O)[C@H]1C(=O)N[C@@H](CC)C(=O)N(C)[C@H](C)C(=O)N(C)[C@@H]([C@H](C)CCCN2CCC(C(N)=O)CC2)C(=O)N[C@@H](C(C)C)C(=O)N(C)[C@@H](CC(C)C)C(=O)N[C@@H](C)C(=O)N[C@H](C)C(=O)N(C)[C@@H](CC(C)C)C(=O)N(C)[C@@H](CC(C)C)C(=O)N(C)[C@@H](C(C)C)C(=O)N1C [Compound 2.19.2, 3-[D-Ala]-4-[(2S,3R)-6-(4-carbamoylpiperidin-1-yl)-3-methyl-2-(methylamino)hexanoyl]-cyclosporin] (cyclo(A[dA][NMeL][NMeL][NMeV][MeBmt][Abu][dNMeA][X69]V[NMeL])) | 0.9 | 0.6 | 0.0005 | 2.7 | 32.3 |  |
| C/C=C/C[C@@H](C)[C@@H](O)[C@H]1C(=O)N[C@@H](CC)C(=O)N(C)[C@H](CO)C(=O)N(C)[C@@H]([C@H](C)COC)C(=O)N[C@@H](C(C)C)C(=O)N(C)[C@@H](CC(C)C)C(=O)N[C@@H](C)C(=O)N[C@H](C)C(=O)N(C)[C@@H](CC(C)C)C(=O)N(C)[C@@H](CC(C)C)C(=O)N(C)[C@@H](C(C)C)C(=O)N1C [Compound 3.2.3, 3-[D-ser]-4-[(2S,3S)-4-methoxy-3-methyl-2-(methylamino)butanoyl]-cyclosporin] (cyclo(A[dA][NMeL][NMeL][NMeV][MeBmt][Abu][dNMeS][NMeVal(4-OMe,3S)]V[NMeL])) | 15 | 7 | 0.007 |  | 8.9 | 0.33 |
| C/C=C/C[C@@H](C)[C@@H](O)[C@H]1C(=O)N[C@@H](CC)C(=O)N(C)[C@H](C)C(=O)N(C)[C@@H]([C@H](C)CN2CCC(C#N)CC2)C(=O)N[C@@H](C(C)C)C(=O)N(C)[C@@H](CC(C)C)C(=O)N[C@@H](C)C(=O)N[C@H](C)C(=O)N(C)[C@@H](CC(C)C)C(=O)N(C)[C@@H](CC(C)C)C(=O)N(C)[C@@H](C(C)C)C(=O)N1C [Compound 2.5.26, 3-[D-Ala]-4-[(2S,3R)-4-(4-cyanopiperidin-1-yl)-3-methyl-2-(methylamino)butanoyl]-cyclosporin] (cyclo(A[dA][NMeL][NMeL][NMeV][MeBmt][Abu][dNMeA][X39]V[NMeL])) | 1.3 | 0.8 | 0.0008 | 0.029 | 11.6 |  |
| C/C=C/C[C@@H](C)[C@@H](O)[C@H]1C(=O)N[C@@H](CC)C(=O)N(C)[C@H](C)C(=O)N(C)[C@@H]([C@@H](C)CO)C(=O)N[C@@H](C(C)C)C(=O)N(C)[C@@H](CC(C)C)C(=O)N[C@@H](C)C(=O)N[C@H](C)C(=O)N(C)[C@@H](CC(C)C)C(=O)N(C)[C@@H](CC(C)C)C(=O)N(C)[C@@H](C(C)C)C(=O)N1C [Compound 2.17.13, 3-[D-Ala]-4-[(2S,3R)-4-hydroxy-3-methyl-2-(methylamino)butanoyl]-cyclosporin] (cyclo(A[dA][NMeL][NMeL][NMeV][MeBmt][Abu][dNMeA][X86]V[NMeL])) |  |  |  | 0.085 |  |  |
| CCCC[C@@H](C)[C@@H](O)[C@H]1C(=O)N[C@@H](CC)C(=O)N(C)[C@H](C)C(=O)N(C)[C@@H]([C@@H](C)CN2CCO[C@H](COC)C2)C(=O)N[C@@H](C(C)C)C(=O)N(C)[C@@H](CC(C)C)C(=O)N[C@@H](C)C(=O)N[C@H](C)C(=O)N(C)[C@@H](CC(C)C)C(=O)N(C)[C@@H](CC(C)C)C(=O)N(C)[C@@H](C(C)C)C(=O)N1C [Compound 2.17.12, 1-dihydro-3-[D-Ala]-4-[(2S,3S)-4-((S)-2-(methoxymethyl)morpholino)-3-methyl-2-(methylamino)butanoyl]-cyclosporin] | 1.7 | 0.7 | 0.0008 | 0.075 |  |  |
